From US20090011057A1, “FORMULATIONS AND METHODS FOR INHIBITING ANAEROBES, GRAM NEGATIVE BACTERIA, PROTOZOA AND OTHER MICROBIAL GROWTH WITH MORINDA CITRIFOLIA L. ENHANCED FORMULATIONS” (priority 2007, published 2009)
In brackets after ≈: the same amount, converted by molar mass.

Legend:
Assay type in all cases: cell-based
[1] = system: Trichomonas foetus (Br. M. Strain); test: Anti-infective in vitro assay, inhibition of growth examined; details: Tritrichomonas foetus, read-out: Reference Compound, Concurrent (MIC)
Method: (§1) In a preliminary investigations the potential usage of the M. citrifolia Noni fruit juice on bacterial species and various protozoan species, which are known to cause economic downfalls in humans and livestock industries were assessed.
(§2) Method employed in this study have been adapted from the scientific literature to maximize reliability and reproducibility. Reference standards were run as an integral part of each assay to ensure the validity of the results obtained. Materials utilized are described in the following charts.

[2] = system: Actinomyces viscosus (ATCC 15987); test: Anti-infective in vitro assay, growth inhibition (turbidity); details: ATCC15987, read-out: Reference Compound, Concurrent (MIC)
Method: as §1, §2

[3] = system: Salmonella typhimurium (ATCC 13311); test: as above; details: Salmonella typhimuium (ATCC 13311)
Method: as §1, §2

Compound `Cc1ncc([N+](=O)[O-])n1CCO` [Metronidazole] has an MIC [1] of 3 µg/mL (≈ 17.5 µM).

With `CC1(C)S[C@@H]2[C@H](NC(=O)[C@H](N)c3ccccc3)C(=O)N2[C@H]1C(=O)O` [Ampicillin] the MIC [2] was 0.03 µg/mL (≈ 0.0859 µM).

For Gentamicin, the MIC [3] was 0.3 µg/mL.
